From US20250145589A1, “PYRIDINE DERIVATIVE AND USE THEREOF” (SICHUAN HUIYU PHARMACEUTICAL CO., LTD., priority 2021, published 2025) come the findings set out here.

The test system of assay [1] is MIA PaCa-2-AMGR drug-resistant cell line. Briefly: MIA PaCa-2-AMGR drug-resistant cell proliferation inhibitory activity test. It counts as cell-based. Conditions: 72 h, MIA PaCa-2-AMGR drug-resistant cells, 3 days incubation, CellTiter-Glo. In outline:
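Viability was read by CellTiter-Glo luminescence after 3 days of compound exposure (8 points, 5-fold serial dilution), with IC50 derived relative to untreated control. Cells: AMG510-resistant MIA PaCa-2 (selected stepwise to 1 μM AMG510), 4×10^3/well, DMEM + 10% FBS + 2.5% horse serum, 37° C.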
(In general: Cellular ATP, detected with luciferase, serves as a proxy for viable cell number.)

Assay [2] has as its system NCI-H358 cells (KRAS G12C mutant). As to the kind of experiment: NCI-H358 cell proliferation inhibition (CellTiter-Glo). As to conditions: Homo sapiens, NCI-H358, 72 h; H358 cells (G12C mutation), 3 days, Table 6; read-out: NCI-H358 (IC50). It counts as cell-based.

For `COc1ncc(-c2ccc3ncnc(C4CCN(C(=O)/C=C/C(C)=O)CC4)c3n2)cc1NS(=O)(=O)c1sc(C)nc1C` [Example 230, (E)-N-(2-methoxy-5-(4-(1-(4-oxopent-2-enoyl)piperidin-4-yl)pyrido[3,2-d]pyrimidin-6-yl)pyridin-3-yl)-2,4-dimethylthiazol-5-sulfonamide], the IC50 (as a rule, the midpoint of a concentration-inhibition curve) in assay [1] stood at 35.3 nM; in assay [2], 6.9 nM.

Regarding `COc1ncc(-c2ccc3ncnc(C4CCN(C(=O)/C=C/C(C)=O)CC4)c3n2)cc1NS(=O)(=O)c1c(F)cc(F)cc1F` [Example 231, (E)-2,4,6-trifluoro-N-(2-methoxy-5-(4-(1-(4-oxopent-2-enoyl)piperidin-4-yl)pyrido[3,2-d]pyrimidin-6-yl)pyridin-3-yl)benzenesulfonamide], the results for the IC50 in assay [1] and in assay [2] were 3.6 nM and 3.7 nM, respectively.

Consider `COc1ncc(-c2ccc3ncnc(C4CCN(C(=O)/C=C/C(C)=O)CC4)c3n2)cc1NS(=O)(=O)c1ccccc1F` [Example 232, (E)-2-fluoro-N-(2-methoxy-5-(4-(1-(4-oxopent-2-enoyl)piperidin-4-yl)pyrido[3,2-d]pyrimidin-6-yl)pyridin-3-yl)benzenesulfonamide], for which the IC50 in assay [1] is 9 nM; in assay [2], 8.7 nM.

For the compound `COc1ncc(-c2ccc3ncnc(C4CCN(C(=O)/C=C/C(C)=O)CC4)c3n2)cc1NS(=O)(=O)c1c(F)cccc1F` [Example 233, (E)-2,6-difluoro-N-(2-methoxy-5-(4-(1-(4-oxopent-2-enoyl)piperidin-4-yl)pyrido[3,2-d]pyrimidin-6-yl)pyridin-3-yl)benzenesulfonamide], the figures for the IC50 in assay [1] and in assay [2] were 16.7 nM and 5 nM, respectively.

`COc1ncc(-c2ccc3ncnc(C4CCN(C(=O)/C=C/C(C)=O)CC4)c3n2)cc1NS(=O)(=O)c1ccc(F)cc1F` [Example 234, (E)-2,4-difluoro-N-(2-methoxy-5-(4-(1-(4-oxopent-2-enoyl)piperidin-4-yl)pyrido[3,2-d]pyrimidin-6-yl)pyridin-3-yl)benzenesulfonamide]: the IC50 in assay [1] amounted to 5.3 nM; in assay [2] it was 5.5 nM.
